Measured values: US8613914B2, “Peptidomimetic sulfamide compounds and antiviral uses thereof” (Novartis AG, priority 2009, dated 2013)

Biological target: HCV NS3-4A serine protease (full-length NS3-4A protein) (Hepatitis C virus genotype 1a (isolate 1) (HCV), UniProt P26664)
Test: HCV NS3-4A protease assay
Type: biochemical, HCV genotype 1a
Settings: strain HCV-1, fluorogenic peptide substrate, read-out: Protease assay Ex. 12 IC50
Protocol: The inhibitory activity of certain compounds of Table A against HCV NS3-4A serine protease is determined in a homogenous assay using the full-length NS3-4A protein (genotype 1a, strain HCV-1) and a commercially available internally-quenched fluorogenic peptide substrate as described by Taliani, M., et al. 1996 Anal. Biochem. 240:60-67, which is incorporated by reference in its entirety.

Sequence of HCV NS3-4A serine protease (full-length NS3-4A protein) (P26664 1027-1657): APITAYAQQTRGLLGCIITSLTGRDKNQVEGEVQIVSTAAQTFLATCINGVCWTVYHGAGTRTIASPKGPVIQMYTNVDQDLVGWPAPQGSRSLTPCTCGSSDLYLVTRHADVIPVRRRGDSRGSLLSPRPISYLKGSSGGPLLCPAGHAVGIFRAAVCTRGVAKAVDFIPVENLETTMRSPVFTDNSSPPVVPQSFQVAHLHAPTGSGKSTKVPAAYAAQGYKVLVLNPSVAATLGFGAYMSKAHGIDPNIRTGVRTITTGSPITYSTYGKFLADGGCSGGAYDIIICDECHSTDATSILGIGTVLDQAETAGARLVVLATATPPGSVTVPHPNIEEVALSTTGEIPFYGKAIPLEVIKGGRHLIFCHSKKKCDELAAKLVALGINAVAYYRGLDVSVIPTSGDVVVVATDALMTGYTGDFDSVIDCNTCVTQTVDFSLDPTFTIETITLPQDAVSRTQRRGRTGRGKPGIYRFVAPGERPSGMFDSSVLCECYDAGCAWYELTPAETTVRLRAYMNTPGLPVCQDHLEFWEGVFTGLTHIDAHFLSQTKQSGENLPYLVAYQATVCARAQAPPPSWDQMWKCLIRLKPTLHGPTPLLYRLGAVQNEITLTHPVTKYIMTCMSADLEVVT
Sequence of HCV NS3-4A serine protease (full-length NS3-4A protein) (P26664 1658-1711 partner): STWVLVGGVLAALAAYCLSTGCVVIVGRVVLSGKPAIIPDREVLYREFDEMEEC

Question: How did the IC50 turn out when `C=C[C@@H]1C[C@]1(NC(=O)[C@@H]1C[C@@]2(CN1C(=O)[C@@H](NC(=O)[C@@H](NC(=O)CN1CCN(C)CC1)C1CCCCC1)C(C)(C)C)C(C)(C)C21CCC1)C(=O)NS(=O)(=O)N1CCCC1` [Compound 202, (5R,8S)-7-{(2S)-2-[(cyclohexyl{[(4-methylpiperazin-1-yl)acetyl]amino}acetyl)amino]-3,3-dimethylbutanoyl}-10,10-dimethyl-N-{(1R,2S)-1-[(pyrrolidin-1-ylsulfonyl)carbamoyl]-2-vinylcyclopropyl}-7-azadispiro[3.0.4.1]decane-8-carboxamide] was run?
Answer: The IC50 was 20 nM.

Question: With `C=C[C@@H]1C[C@]1(NC(=O)[C@@H]1C[C@@]2(CN1C(=O)[C@@H](NC(=O)[C@@H](NC(=O)[C@@H]1CCCN1CC)C1CCCCC1)C(C)(C)C)C(C)(C)C21CCC1)C(=O)NS(=O)(=O)N1CCCC1` [Compound 39, (5R,8S)-7-[(2S)-2-{[(2S)-2-cyclohexyl-2-({[(2S)-1-ethylpyrrolidin-2-yl]carbonyl}amino)acetyl]amino}-3,3-dimethylbutanoyl]-10,10-dimethyl-N-{(1R,2S)-1-[(pyrrolidin-1-ylsulfonyl)carbamoyl]-2-vinylcyclopropyl}-7-azadispiro[3.0.4.1]decane-8-carboxamide] as the compound, how does the IC50 read?
Answer: The IC50 was 2.5 nM.

Question: With `C=C[C@@H]1C[C@]1(NC(=O)[C@@H]1C[C@@]2(CN1C(=O)[C@@H](NC(=O)[C@@H](NC(=O)[C@@H]1CCN1C(C)C)C(C)(C)C)C(C)(C)C)C(C)(C)C21CCC1)C(=O)NS(=O)(=O)N1CCCC1` [Compound 12, (5R,8S)-7-[(2S)-2-{[(2S)-2-({[(2S)-1-isopropylazetidin-2-yl]carbonyl}amino)-3,3-dimethylbutanoyl]amino}-3,3-dimethylbutanoyl]-10,10-dimethyl-N-{(1R,2S)-1-[(pyrrolidin-1-ylsulfonyl)carbamoyl]-2-vinylcyclopropyl}-7-azadispiro[3.0.4.1]decane-8-carboxamide] as the compound, how does the IC50 read?
Answer: Its IC50 is 40 nM.

Question: For `C=C[C@@H]1C[C@]1(NC(=O)C1C[C@@]2(CN1C(=O)[C@@H](NC(=O)c1cccc(C(=O)NCCC)c1)C(C)(C)C)C(C)(C)C21CCC1)C(=O)NS(=O)(=O)N1CCCC1` (stereo partly drawn) [Compound 68, N-[(1S)-1-{[(5R)-10,10-dimethyl-8-({(1R,2S)-1-[(pyrrolidin-1-ylsulfonyl)carbamoyl]-2-vinylcyclopropyl}carbamoyl)-7-azadispiro[3.0.4.1]dec-7-yl]carbonyl}-2,2-dimethylpropyl]-N′-propylisophthalamide], which IC50 is on record?
Answer: Its IC50 is 950 nM.

Question: `C=C[C@@H]1C[C@]1(NC(=O)[C@@H]1C[C@@]2(CN1C(=O)[C@@H](NC(=O)[C@@H](NC(=O)[C@H]1CCCCN1CC)C1CCCCC1)C(C)(C)C)C(C)(C)C21CCC1)C(=O)NS(=O)(=O)N1CCCC1` [Compound 36, (5R,8S)-7-[(2S)-2-{[(2S)-2-cyclohexyl-2-({[(2R)-1-ethylpiperidin-2-yl]carbonyl}amino)acetyl]amino}-3,3-dimethylbutanoyl]-10,10-dimethyl-N-{(1R,2S)-1-[(pyrrolidin-1-ylsulfonyl)carbamoyl]-2-vinylcyclopropyl}-7-azadispiro[3.0.4.1]decane-8-carboxamide] was tested. Which IC50 did it give?
Answer: Its IC50 is 3.5 nM.

Question: How did the IC50 turn out when `C=C[C@@H]1C[C@]1(NC(=O)[C@@H]1C[C@@]2(CN1C(=O)[C@@H](NC(=O)[C@@H](NC(=O)[C@@H]1CCCN1CC)C1(C)CCCCC1)C(C)(C)C)C(C)(C)C21CCC1)C(=O)NS(=O)(=O)N(CC)CC` [Compound 134, (5R,8S)-N-[(1R,2S)-1-{[(diethylamino)sulfonyl]carbamoyl}-2-vinylcyclopropyl]-7-[(2S)-2-{[(2S)-2-({[(2S)-1-ethylpyrrolidin-2-yl]carbonyl}amino)-2-(1-methylcyclohexyl)acetyl]amino}-3,3-dimethylbutanoyl]-10,10-dimethyl-7-azadispiro[3.0.4.1]decane-8-carboxamide] was run?
Answer: Its IC50 is 5 nM.

Question: With `C=C[C@@H]1C[C@]1(NC(=O)[C@@H]1C[C@@]2(CN1C(=O)[C@@H](NC(=O)[C@@H](NC(=O)[C@@H]1CCCCN1C(C)C)C1CCCCC1)C(C)(C)C)C(C)(C)C21CCC1)C(=O)NS(=O)(=O)N(C)C` [Compound 162, (5R,8S)-7-[(2S)-2-{[(2S)-2-cyclohexyl-2-{[(1-isopropylpiperidin-2-yl)carbonyl]amino}acetyl]amino}-3,3-dimethylbutanoyl]-N-[(1R,2S)-1-{[(dimethylamino)sulfonyl]carbamoyl}-2-vinylcyclopropyl]-10,10-dimethyl-7-azadispiro[3.0.4.1]decane-8-carboxamide] as the compound, how does the IC50 read?
Answer: The IC50 was 0.9 nM.

Question: How did the IC50 turn out when `C=C[C@@H]1C[C@]1(NC(=O)[C@@H]1C[C@@]2(CN1C(=O)[C@@H](NC(=O)[C@@H](NC(=O)[C@@H]1CCCCN1C(C)C)C1(C)CCOCC1)C1(C)CCCCC1)C(C)(C)C21CCC1)C(=O)NS(=O)(=O)N(CC)CC` [Compound 158, (5R,8S)-N-[(1R,2S)-1-{[(diethylamino)sulfonyl]carbamoyl}-2-vinylcyclopropyl]-7-[(2S)-2-{[(2S)-2-({[(2S)-1-isopropylpiperidin-2-yl]carbonyl}amino)-2-(4-methyltetrahydro-2H-pyran-4-yl)acetyl]amino}-2-(1-methylcyclohexyl)acetyl]-10,10-dimethyl-7-azadispiro[3.0.4.1]decane-8-carboxamide] was run?
Answer: The IC50 was 22 nM.

Question: `C=C[C@@H]1C[C@]1(NC(=O)[C@@H]1C[C@@]2(CN1C(=O)[C@@H](NC(=O)[C@@H](NC(=O)c1cc3ccccc3o1)C1CCCCC1)C(C)(C)C)C(C)(C)C21CCC1)C(=O)NS(=O)(=O)N1CCCC1` [Compound 191, (5R,8S)-7-[(2S)-2-({[(1-benzofuran-2-ylcarbonyl)amino](cyclohexyl)acetyl}amino)-3,3-dimethylbutanoyl]-10,10-dimethyl-N-{(1R,2S)-1-[(pyrrolidin-1-ylsulfonyl)carbamoyl]-2-vinylcyclopropyl}-7-azadispiro[3.0.4.1]decane-8-carboxamide] was tested. Which IC50 did it give?
Answer: Its IC50 is 55 nM.

Question: Which IC50 does the source give for `C=C[C@@H]1C[C@]1(NC(=O)[C@@H]1C[C@@]2(CN1C(=O)[C@@H](NC(=O)[C@@H](NC(=O)[C@@H]1CCCCN1C(C)C)C1CCOCC1)C1(C)CCOCC1)C(C)(C)C21CCC1)C(=O)NS(=O)(=O)N1CCCC1` [Compound 127, (5R,8S)-7-[(2S)-2-{[(2S)-2-({[(2S)-1-isopropylpiperidin-2-yl]carbonyl}amino)-2-(tetrahydro-2H-pyran-4-yl)acetyl]amino}-2-(4-methyltetrahydro-2H-pyran-4-yl)acetyl]-10,10-dimethyl-N-{(1R,2S)-1-[(pyrrolidin-1-ylsulfonyl)carbamoyl]-2-vinylcyclopropyl}-7-azadispiro[3.0.4.1]decane-8-carboxamide] here?
Answer: Its IC50 is 4 nM.

Question: `C=C[C@@H]1C[C@]1(NC(=O)[C@@H]1C[C@@]2(CN1C(=O)[C@@H](NC(=O)[C@@H](NC(=O)[C@@H]1CCCCN1CCF)C(C)(C)C)C(C)(C)C)C(C)(C)C21CCC1)C(=O)NS(=O)(=O)N1CCCC1` [Compound 20, (5R,8S)-7-[(2S)-2-{[(2S)-2-({[(2S)-1-(2-fluoroethyl)piperidin-2-yl]carbonyl}amino)-3,3-dimethylbutanoyl]amino}-3,3-dimethylbutanoyl]-10,10-dimethyl-N-{(1R,2S)-1-[(pyrrolidin-1-ylsulfonyl)carbamoyl]-2-vinylcyclopropyl}-7-azadispiro[3.0.4.1]decane-8-carboxamide] was tested. Which IC50 did it give?
Answer: The IC50 was 70 nM.

Question: `C=C[C@@H]1C[C@]1(NC(=O)[C@@H]1C[C@@]2(CN1C(=O)[C@@H](NC(=O)[C@@H](NC(=O)[C@@H]1CCCN1C(C)C)C1CCCCC1)C(C)(C)C)C(C)(C)C21CCC1)C(=O)NS(=O)(=O)N(CC)CC` [Compound 62, (5R,8S)-7-[(2S)-2-{[(2S)-2-cyclohexyl-2-({[(2S)-1-isopropylpyrrolidin-2-yl]carbonyl}amino)acetyl]amino}-3,3-dimethylbutanoyl]-N-[(1R,2S)-1-{[(diethylamino)sulfonyl]carbamoyl}-2-vinylcyclopropyl]-10,10-dimethyl-7-azadispiro[3.0.4.1]decane-8-carboxamide] was tested. Which IC50 did it give?
Answer: The IC50 was 1 nM.

Question: `C=C[C@@H]1C[C@]1(NC(=O)[C@@H]1C[C@@]2(CN1C(=O)[C@@H](NC(=O)[C@@H](NC(=O)[C@@H]1CCCCN1C(C)C)C1CCCCC1)C(C)(C)C)C(C)(C)C21CCC1)C(=O)NS(=O)(=O)N(C)CC(F)F` [Compound 83, (5R,8S)-7-[(2S)-2-{[(2S)-2-cyclohexyl-2-({[(2S)-1-isopropylpiperidin-2-yl]carbonyl}amino)acetyl]amino}-3,3-dimethylbutanoyl]-N-[(1R,2S)-1-({[(2,2-difluoroethyl)(methyl)amino]sulfonyl}carbamoyl)-2-vinylcyclopropyl]-10,10-dimethyl-7-azadispiro[3.0.4.1]decane-8-carboxamide] was tested. Which IC50 did it give?
Answer: Its IC50 is 2 nM.

Question: How did the IC50 turn out when `C=C[C@@H]1C[C@]1(NC(=O)[C@@H]1C[C@@]2(CN1C(=O)[C@@H](NC(=O)[C@@H](NC(=O)[C@@H]1CCCCN1C(C)C)C1CCCCC1)C(C)(C)C)C(C)(C)C21CCC1)C(=O)NS(=O)(=O)N(CC)CC` [Compound 174, (5R,8S)-7-[(2S)-2-{[(2S)-2-cyclohexyl-2-({[(2S)-1-isopropylpiperidin-2-yl]carbonyl}amino)acetyl]amino}-3,3-dimethylbutanoyl]-N-[(1R,2S)-1-{[(diethylamino)sulfonyl]carbamoyl}-2-vinylcyclopropyl]-10,10-dimethyl-7-azadispiro[3.0.4.1]decane-8-carboxamide] was run?
Answer: Its IC50 is 0.6 nM.

Question: With `C=C[C@@H]1C[C@]1(NC(=O)[C@@H]1C[C@@]2(CN1C(=O)[C@@H](NC(=O)[C@@H](NC(=O)c1ccc3occc3c1)C1CCCCC1)C(C)(C)C)C(C)(C)C21CCC1)C(=O)NS(=O)(=O)N1CCCC1` [Compound 192, (5R,8S)-7-[(2S)-2-({[(1-benzofuran-5-ylcarbonyl)amino](cyclohexyl)acetyl}amino)-3,3-dimethylbutanoyl]-10,10-dimethyl-N-{(1R,2S)-1-[(pyrrolidin-1-ylsulfonyl)carbamoyl]-2-vinylcyclopropyl}-7-azadispiro[3.0.4.1]decane-8-carboxamide] as the compound, how does the IC50 read?
Answer: The IC50 was 25 nM.
